In assay [1] the test system is MSTO-211H (human biphasic mesothelioma) cells. Nature of the assay: Cell viability, trypan blue dye exclusion assay (antiproliferative activity). Conditions: 72 h. Format: cell-based. On the procedure:
(§1) The cell lines used in our study were purchased from ATCC (American Type Culture Collection). […] LN229 (human glioblastoma) cells were cultured in DMEM (D2902, Merck) supplemented with 3.5 g/L glucose and 5% FCS. NaHCO3 (S5761, Merck), as indicated in the manufacturer’s instructions, 100 U/mL penicillin, 100 μg/mL streptomycin, and 0.25 μg/mL amphotericin B (A5955, Merck) were added to the culture media. The cells were maintained at 37 °C in a humidified atmosphere incubator containing 5% carbon dioxide in air.
(§2) The cell viability was analyzed by a trypan blue dye exclusion assay. Briefly, 3–4 × 10^4 cells were seeded in each well of a 24-well cell culture plate and treated with test drugs or NPs at concentrations ranging from 1 to 30 nM and from 0.01 to 20 μM, respectively, after 24 of growth in standard conditions. After 72 h from the treatment, the cells were detached by trypsinization and counted by optical microscope.

Assay [2] concerns LN229 (human glioblastoma) cells. The assay is described as above. In kind it is cell-based. On the procedure:
as §1, §2

Assay [3] concerns HT-29 (human colorectal adenocarcinoma) cells. Described as above. Format: cell-based. To be noted: HT-29, 72 h. As to the method: as §1, §2
Assay [4] concerns MeT-5A (human mesothelium, non-tumorigenic) cells. The assay is described as above. Format: cell-based. To be noted: 72 h. As to the method:
as §1, §2

In assay [5] the test system is LN229, HT-29, MSTO-211H and MeT-5A cells. Nature of the assay: Antiproliferative activity compared across the cell line panel. In kind it is cell-based. To be noted: Homo sapiens; all four cell lines, 72 h; read-out: GI50 values (range over the cell lines). On the procedure: The cell lines used in our study were purchased from ATCC (American Type Culture Collection). Specifically, we used LN-229 (ATCC CRL-2611), HT-29 (ATCC HTB-38), and MSTO-211H (ATCC CRL-2081). MeT-5A (ATCC CRL-9444), MSTO-211H (human biphasic mesothelioma), and Met-5A (human mesothelium) cells were grown in RPMI 1640 (R6504, Merck) supplemented with 2.38 g/L Hepes (H3375, Merck, St. Louis, MO, USA), 0.11 g/L pyruvate sodium (P5280, Merck), 2.5 g/L glucose (G6152, Merck), and 10% heat-inactivated fetal calf serum (FCS, F7524, Merck). HT-29 (human colorectal adenocarcinoma) cells were grown in RPMI 1640 (R6504, Merck) supplemented with 10% heat-inactivated FCS. LN229 (human glioblastoma) cells were cultured in DMEM (D2902, Merck) supplemented with 3.5 g/L glucose and 5% FCS. NaHCO3 (S5761, Merck), as indicated in the manufacturer’s instructions, 100 U/mL penicillin, 100 μg/mL streptomycin, and 0.25 μg/mL amphotericin B (A5955, Merck) were added to the culture media. The cells were maintained at 37 °C in a humidified atmosphere incubator containing 5% carbon dioxide in air.
The cell viability was analyzed by a trypan blue dye exclusion assay. […] After 72 h from the treatment, the cells were detached by trypsinization and counted by optical microscope. […]

For assay [6], the system named is LN229 cells. In words: Cell cycle analysis by flow cytometry (propidium iodide). Format: cell-based, human. Conditions: LN229, 48 h. On the procedure: A total of 2 × 10^5 LN229 cells were seeded in Petri culture plates, left to grow for 24 h in standard conditions, and then treated with CPT and Np3b at the indicated concentrations. After 48 h, the cells were harvested, centrifuged, combined with ice-cold 70% w/v ethanol, and left at 4 °C for 20 min. Then, the cells were centrifuged, and the pellet was resuspended in a final volume of 300 μL PBS containing 0.1 mg mL^−1 RNAse (R6513, Merck) and […] propidium iodide (P4170, Merck). The DNA content was quantified by a BD FACSAria III flow cytometer (BD Life Sciences) and the data were analyzed by BD FACSDiva software (version 9.0). Statistical analysis was performed by Student’s t-test.
On the technique in general: A flow cytometer gives signals particle by particle.

Assay [7] concerns microtubules in LN229 cells. In words: Confocal microscopy of microtubule status (anti-β-tubulin staining). Conditions: LN229, 4 h; Desa 3 µM, Np1b 200 µM, PTX and Np2b at indicated concentrations. In kind it is cell-based, human.
Experimental: LN229 cells (3 × 10^4) were seeded in 4-well cell culture chamber on a glass slide and cultured up to 50–60% confluence. […] After incubation, the cells were gently washed twice with PBS, fixed with 4% formaldehyde at room temperature for 15 min, washed twice with PBS, and permeabilized with 0.1% Triton X-100 (T8787, Merck) in PBS for 5 min in the dark. Again, the cells were washed twice with PBS and incubated for 30 min in the dark with 7% FCS in PBS. […] After washing twice with PBS, 0.001 mg/mL DAPI (MBD0015, Merck) was added for 15 min, then the cells were washed with PBS, and the coverslips were mounted on glass slides using Fluoroshield^TM (F6182, Merck). […] Particle counting and size distribution were estimated using the built-in Analyze Particles plugin in Image J (Fiji).

This is an account of results in publication PMC12114796, “Self-Assembled Cannabigerol-Based Nanoparticles: Design, Synthesis, and Antiproliferative Activity” (Pharmaceutics, 2025).

Molecules are shown by their SMILES. Where two headings read alike, the source gives them in different places.

Take `CCCCCc1cc(O)c(C/C=C(\C)CCC=C(C)C)c(O)c1` [CBG, Cannabigerol]: the GI50 is 16000 ± 2000 nM in assay [1]; 5900 ± 1300 nM in assay [2] (LN-229, 72 h); 9700 ± 200 nM in assay [3]; 16000 ± 2000 nM in assay [4]; 5900 to 16000 nM in assay [5].

In the case of `CC[C@@]1(O)C(=O)OCc2c1cc1n(c2=O)Cc2cc3ccccc3nc2-1` [CPT, camptothecin], the GI50 in assay [1] (mean ± SD, read-out: GI50) was 3.3 ± 1 nM; in assay [2] (LN-229, LN229, 72 h, mean ± SD, read-out: GI50) it was 7.9 ± 0.1 nM; in assay [3] (mean ± SD, read-out: GI50), 7.9 ± 0.8 nM; in assay [4] (mean ± SD, read-out: GI50), 7.8 ± 0.2 nM. For the same compound, the “cells in G2/M phase” value in assay [6] (20 nM CPT (control 11.7%)) is 33.4%. The “cells in G1 phase” value in assay [6] (20 nM CPT (control 69.4%)) is 49.4%.

Take `CC(=O)O[C@H]1C(=O)[C@@]2(C)[C@H]([C@H](OC(=O)c3ccccc3)[C@]3(O)C[C@H](OC(=O)[C@H](O)[C@@H](NC(=O)c4ccccc4)c4ccccc4)C(C)=C1C3(C)C)[C@]1(OC(C)=O)CO[C@@H]1C[C@@H]2O` [PTX, paclitaxel]: the 50% growth inhibitory concentration (GI50) in assay [1] was determined as 3.3 ± 0.6 nM; in assay [2] (LN-229, 72 h), 4.2 ± 0.7 nM; in assay [3] it was 2.8 ± 0.2 nM; in assay [4], 4.4 ± 0.1 nM. For the same compound, the “effect on microtubule network” value in assay [7] is on record as “polymerizing effect”.

What is called GI50 is the concentration that inhibits growth by half.
